System: 276233-004-R-J1-PDC KRAS spheroids with HUVEC/MSC, viability
Assay: Anticancer human tumor 276233-004-R-J1-PDC patient-derived colon adenocarcinoma cell line growth inhibition [KRAS2]
Conditions: for IC50: curve of first compound; for viability, T/C: stronger effect = lower value
Outline: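 KRAS-mutant tumor cells were grown as spheroids with HUVEC endothelial cells and human MSCs as stroma. Targeted agents were tested alone and with KRAS pathway inhibitors. Doses started at or near clinical Cmax, or 10 microM, descending half-log.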

[1] = second compound 0.1 µM, first compound 0.00316 µM
[2] = second compound 0.1 µM, first compound 0.01 µM
[3] = second compound 0.1 µM, first compound 0.0316 µM
[4] = second compound 0.1 µM, first compound 0.1 µM
[5] = second compound 0.1 µM, first compound 0.316 µM
[6] = second compound 0.1 µM, first compound 1 µM
[7] = second compound 0.316 µM, first compound 0.00316 µM
[8] = second compound 0.316 µM, first compound 0.01 µM
[9] = second compound 0.316 µM, first compound 0.0316 µM
[10] = second compound 0.316 µM, first compound 0.1 µM
[11] = second compound 0.316 µM, first compound 0.316 µM
[12] = second compound 0.316 µM, first compound 1 µM
[13] = second compound 1 µM, first compound 0.00316 µM
[14] = second compound 1 µM, first compound 0.01 µM
[15] = second compound 1 µM, first compound 0.0316 µM
[16] = second compound 1 µM, first compound 0.1 µM
[17] = second compound 1 µM, first compound 0.316 µM
[18] = second compound 1 µM, first compound 1 µM
[19] = second compound 3.16 µM, first compound 0.00316 µM
[20] = second compound 3.16 µM, first compound 0.01 µM
[21] = second compound 3.16 µM, first compound 0.0316 µM
[22] = second compound 3.16 µM, first compound 0.1 µM
[23] = second compound 3.16 µM, first compound 0.316 µM
[24] = second compound 3.16 µM, first compound 1 µM
[25] = second compound 10 µM, first compound 0.00316 µM
[26] = second compound 10 µM, first compound 0.01 µM
[27] = second compound 10 µM, first compound 0.0316 µM
[28] = second compound 10 µM, first compound 0.1 µM
[29] = second compound 10 µM, first compound 0.316 µM
[30] = second compound 10 µM, first compound 1 µM
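Note: cells exposed to agents for seven days before viability read.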
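Throughout, for viability, T/C: 100% = DMSO vehicle control wells and lower values mean fewer viable cells.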

SMILES	IC50 (second compound 0.1 µM)	IC50 (second compound 0.316 µM)	IC50 (second compound 1 µM)	IC50 (second compound 3.16 µM)	IC50 (second compound 10 µM)	viability, T/C [1]	viability, T/C [2]	viability, T/C [3]	viability, T/C [4]	viability, T/C [5]	viability, T/C [6]	viability, T/C [7]	viability, T/C [9]	viability, T/C [10]	viability, T/C [15]	viability, T/C [16]	viability, T/C [21]	viability, T/C [22]	viability, T/C [27]	viability, T/C [28]	further results
CCN1CCN(Cc2ccc(Nc3ncc(F)c(-c4cc(F)c5nc(C)n(C(C)C)c5c4)n3)nc2)CC1 + COc1cc2nc(C)nc(NC(C)c3cc(N)cc(C(F)(F)F)c3)c2cc1OC1CCOC1	> 1000 nM	> 1000 nM	> 1000 nM	> 1000 nM	< 3.16 nM	89.2%	98.1%	88.7%	84.5%	91.5%	115%	110%	82.4%	107%	101%	80.2%	74.1%	81.1%	26%	19.7%	viability, T/C [8]: 80.9%; viability, T/C [11]: 98.8%; viability, T/C [12]: 86.8%; viability, T/C [13]: 105%; viability, T/C [14]: 88%; viability, T/C [17]: 96.9%; viability, T/C [18]: 102%; viability, T/C [19]: 82.2%; viability, T/C [20]: 96.5%; viability, T/C [23]: 89.4%; viability, T/C [24]: 74.3%; viability, T/C [25]: 47.1%; viability, T/C [26]: 44.4%; viability, T/C [29]: 4.33%; viability, T/C [30]: 2.22%
CCNC(=O)CC1N=C(c2ccc(Cl)cc2)c2cc(OC)ccc2-n2c(C)nnc21 (stereo not given) + COc1cc2nc(C)nc(NC(C)c3cc(N)cc(C(F)(F)F)c3)c2cc1OC1CCOC1	> 10000 nM	2460 nM	1190 nM	2340 nM	< 31.6 nM			101%	67.1%	61.4%	55%		94.6%	80.2%	84.7%	77.7%	62.3%	69.7%	31.6%	33.9%	viability, T/C (second compound 0.1 µM, first compound 3.16 µM): 50.4%; viability, T/C (second compound 0.1 µM, first compound 10 µM): 49.2%; viability, T/C [11]: 69.5%; viability, T/C [12]: 54.5%; viability, T/C (second compound 0.316 µM, first compound 3.16 µM): 45.7%; viability, T/C (second compound 0.316 µM, first compound 10 µM): 48.2%; viability, T/C [17]: 60.3%; viability, T/C [18]: 42.7%; viability, T/C (second compound 1 µM, first compound 3.16 µM): 44%; viability, T/C (second compound 1 µM, first compound 10 µM): 34.4%; viability, T/C [23]: 62.2%; viability, T/C [24]: 50.8%; viability, T/C (second compound 3.16 µM, first compound 3.16 µM): 46%; viability, T/C (second compound 3.16 µM, first compound 10 µM): 43.2%; viability, T/C [29]: 22.6%; viability, T/C [30]: 12.9%; viability, T/C (second compound 10 µM, first compound 3.16 µM): 11.1%; viability, T/C (second compound 10 µM, first compound 10 µM): 8.17%
Cn1ncnc1[C@H]1c2n[nH]c(=O)c3cc(F)cc(c23)N[C@@H]1c1ccc(F)cc1 + COc1cc2nc(C)nc(NC(C)c3cc(N)cc(C(F)(F)F)c3)c2cc1OC1CCOC1	> 100 nM	> 100 nM	> 100 nM	> 100 nM	< 0.316 nM	76.2%	87.1%	89.7%	76%			84.7%	87.9%	83.2%	87.6%	79.5%	68.1%	86.1%	29.4%	27.2%	viability, T/C (second compound 0.1 µM, first compound 0.000316 µM): 90%; viability, T/C (second compound 0.1 µM, first compound 0.001 µM): 81%; viability, T/C (second compound 0.316 µM, first compound 0.000316 µM): 89.1%; viability, T/C (second compound 0.316 µM, first compound 0.001 µM): 96.7%; viability, T/C [8]: 83.6%; viability, T/C (second compound 1 µM, first compound 0.000316 µM): 83.3%; viability, T/C (second compound 1 µM, first compound 0.001 µM): 91%; viability, T/C [13]: 82.6%; viability, T/C [14]: 85%; viability, T/C (second compound 3.16 µM, first compound 0.000316 µM): 85.3%; viability, T/C (second compound 3.16 µM, first compound 0.001 µM): 90.9%; viability, T/C [19]: 85.2%; viability, T/C [20]: 99.5%; viability, T/C (second compound 10 µM, first compound 0.000316 µM): 33.7%; viability, T/C (second compound 10 µM, first compound 0.001 µM): 40.1%; viability, T/C [25]: 29.1%; viability, T/C [26]: 34.8%

Source: PubChem BioAssay AID1963873 (Molecular Pharmacology Branch, DTP, NCI, 2024)
